Reference: paper PMC9014295 (Frontiers in Pharmacology, 2022)
“Also recorded” adds a separate entry of the source.

How the values were obtained:
[1] = cited from earlier work; for Hepatotoxicity compared with erythromycin: ref Björnsson, 2017
[2] = test system: fosab gene expression in zebrafish liver; assay: qRT-PCR of fosab gene expression in zebrafish liver; assay type: in vivo, Danio rerio; conditions: β-actin reference
Protocol: (§1) As previously described by [Zhang et al. (2020]), the treated zebrafish larvae liver and human L02 cells were collected for the qRT-PCR analysis. Total RNA were extracted from L02 cells and the dissected liver of larvae by using TRIzol reagent (Sigma–Aldrich, Saint Louis, MO, United States) and synthesized cDNA using M-MLV reverse transcriptase (Promega, M1708). The reaction of qRT-PCR was performed by LightCycler480. The relative mRNA levels were calculated with β-actin as the reference gene using the comparative […] quantization method. The specific primers (5′-3′) for amplification in zebrafish are as follows: fosab (F: TTACCAGCCTTAACGCCGAC, R: TGGACCATCCACTGCAAGTC), β-actin (F: CCGTGACATCAAGGAGAAG, R: ATACCGCAAGATTCCATACC). The primer sequences (5′-3′) for qRT-PCR in L02 cells are as follows: c-fos (F: TACTACCACTCACCCGCAGA, R: GGCCTCCTGTCATGGTCTTC), β-actin (F: CACCATTGGCAATGAGCGGTTC, R: AGGTCTTTGCGGATGTCCACGT).

zebrafish fosab gene = assay: RNA-seq analysis of zebrafish larvae liver (fosab); assay type: in vivo, Danio rerio; conditions: 2 mM; for Fold change of fosab gene (RNA-seq): exposed 3 dpf, collected 6 dpf
Protocol: As previously described ([Han et al., 2018a]), the process of ribonucleic acid sequencing (RNA-seq) analysis was carried out by CapitalBio Corporation (Beijing, China). […] Cytoscape software was employed to map the drug–pathway network.

[3] = test system: zebrafish liver, transgenic Tg (fabp10: dsRed) zebrafish larvae; assay: Visual assessment of liver toxicity in zebrafish; assay type: in vivo, Danio rerio; conditions: exposure 3 dpf for 72 h, imaged at 6 dpf
Protocol: Wild-type AB strain zebrafish (Danio rerio) and transgenic Tg (fabp10: dsRed) zebrafish in this study were reared in a standard laboratory environment with a 14-h light/10-h dark cycle at 28 ± 1°C ([Chen et al., 2019]). As previously described ([Zhang et al., 2020]), 3 days post-fertilization (3 dpf), zebrafish larvae were exposed to compound solutions at different concentrations for 72 h. For visual assessment of liver toxicity in zebrafish, the tested zebrafish larvae were imaged by using a fluorescence microscope to observe the liver phenotype of zebrafish larvae, 20 larvae per group.

[4] = test system: c-fos gene expression in L02 cells; assay: qRT-PCR of c-fos gene expression in L02 cells; assay type: cell-based, human; conditions: β-actin reference
Protocol: as §1

human L02 cells [5] = assay: Cell viability of L02 cells by CCK-8 assay; assay type: cell-based; conditions: 24 h, different concentrations
Protocol: As previously described by [Zhang et al. (2020]), the human L02 cells were incubated with each macrolide compounds at different concentrations for 24 h. For cell viability, Cell Counting Kit-8 (CCK-8; Dojindo, CK04) was used by following the manufacturer’s protocol and the absorbance of each well was measured at 450 nm using a microplate reader. For cell toxicity, the level of lactate dehydrogenase (LDH) release was determined by LDH activity assay kits (Dojindo, CK12) according to the manufacturer’s specification, and the absorbance at 490 nm in each well was measured by a microplate reader.

human L02 cells [6] = assay: LDH release assay in L02 cells; assay type: cell-based; conditions: 24 h, different concentrations
Protocol: As previously described by [Zhang et al. (2020]), the human L02 cells were incubated with each macrolide compounds at different concentrations for 24 h. […] For cell toxicity, the level of lactate dehydrogenase (LDH) release was determined by LDH activity assay kits (Dojindo, CK12) according to the manufacturer’s specification, and the absorbance at 490 nm in each well was measured by a microplate reader.

| SMILES | Effect on fosab mRNA level (RNA-seq, GO enrichment analysis) (zebrafish fosab gene) | Fold change of fosab gene (RNA-seq) (zebrafish fosab gene) | Liver phenotype of zebrafish larvae ([3]; 0.5 mm) | c-fos mRNA level (qRT-PCR) [4] | also measured |
| --- | --- | --- | --- | --- | --- |
| CC[C@H]1OC(=O)[C@H](C)[C@@H](O[C@H]2C[C@@](C)(OC)[C@@H](O)[C@H](C)O2)[C@H](C)[C@@H](O[C@@H]2O[C@H](C)C[C@H](N(C)C)[C@H]2O)[C@](C)(O)C[C@@H](C)/C(=N\OCOCCOC)[C@H](C)[C@@H](O)[C@]1(C)O [Roxithromycin] | – | – | – | – | Hepatotoxicity compared with erythromycin [1]: less hepatotoxicity than erythromycin |
| CCC1OC(=O)C(C)C(OC2CC(C)(OC)C(O)C(C)O2)C(C)C(OC2OC(C)CC([N+](C)(C)[O-])C2O)C(C)(O)CC(C)CN(C)C(C)C(O)C1(C)O (stereo not drawn) [Impurity L] | upregulated significantly | 4.10 | liver tissue became black | significantly upregulated; also recorded: greatest effect | fosab mRNA level (qRT-PCR) [2]: greatest effect; Liver phenotype of zebrafish larvae ([3]; 0.1 mM): hepatomegaly and caused the liver lost transparency with a brown coloration |
| CCC1OC(=O)C(C)C(O)C(C)C(OC2OC(C)CC(N(C)C)C2O)C(C)(O)CC(C)CN(C)C(C)C(O)C1(C)O (stereo not drawn) [Impurity J] | upregulated significantly | 2.92 | – | significantly upregulated | – |
| CCC1OC(=O)C(C)C(OC2CC(C)(OC)C(O)C(C)O2)C(C)C(OC2OC(C)CC(N(C)C)C2O)C2(C)CC(C)C(=NC(C)C(O)C1(C)O)O2 (stereo not drawn) [Impurity Q] | upregulated significantly | 3.07 | – | significantly upregulated | – |
| CCC1OC(=O)C(C)C(OC2CC(C)(OC)C(O)C(C)O2)C(C)C(OC2OC(C)CC(N(C)C=O)C2O)C(C)(O)CC(C)CN(C)C(C)C(O)C1(C)O (stereo not drawn) [Impurity F] | no significant effect | – | nearly non-toxic to zebrafish liver | did not affect | Cytotoxicity / cell viability (CCK-8) (human L02 cells [5]): less cytotoxicity; Liver phenotype of zebrafish larvae ([3]; 1 mm): nearly non-toxic to zebrafish liver |
| CCC1OC(=O)C(C)C(OC2CC(C)(OC)C(O)C(C)O2)C(C)C(OC2OC(C)CC(NC)C2O)C(C)(O)CC(C)CN(C)C(C)C(O)C1(C)O (stereo not drawn) [Impurity I] | upregulated significantly | 2.14 | – | significantly upregulated | – |
| CCC1OC(=O)C(C)C(OC2CC(C)(OC)C(O)C(C)O2)C(C)C(OC2OC(C)CC(N(C)C)C2O)C(C)(O)CC(C)C(=NO)C(C)C(O)C1(C)O (stereo not drawn) [Impurity S] | no significant effect | – | – | did not affect | Cytotoxicity / cell viability (CCK-8) (human L02 cells [5]): less cytotoxicity |
| CCC1OC(=O)C(C)C(OC2CC(C)(OC)C(O)C(C)O2)C(C)C(OC2OC(C)CC(N(C)C)C2O)C(C)(O)CC(C)C2=NC(C)C(O2)C1(C)O (stereo not drawn) [Impurity R] | upregulated significantly | 2.18 | – | significantly upregulated; also recorded: moderately lower than azithromycin | – |
| CC[C@H]1OC(=O)[C@H](C)[C@@H](O[C@H]2C[C@@](C)(OC)[C@@H](O)[C@H](C)O2)[C@H](C)[C@@H](O[C@@H]2O[C@H](C)C[C@H](N(C)C)[C@H]2O)[C@](C)(O)C[C@@H](C)CN(C)[C@H](C)[C@@H](O)[C@]1(C)O [Azithromycin] | – | – | hepatomegaly | – | Hepatotoxicity compared with erythromycin [1]: higher hepatotoxicity than erythromycin; Liver phenotype of zebrafish larvae ([3]; 0.1 mM): no toxicity to zebrafish liver; Liver phenotype of zebrafish larvae ([3]; 1 mm): blackened liver tissue |
| CC[C@H]1OC(=O)[C@H](C)C(=O)[C@H](C)[C@@H](O[C@@H]2O[C@H](C)C[C@H](N(C)C)[C@H]2O)[C@](C)(OC)C[C@@H](C)C(=O)[C@H](C)[C@H]2N(CCCCn3cnc(-c4cccnc4)c3)C(=O)O[C@]12C [Telithromycin] | – | – | a dark coloration and amorphous liver | significantly elevated | Cytotoxicity / cell viability (CCK-8) (human L02 cells [5]): higher cytotoxicity than azithromycin; Cytotoxicity (LDH release) (human L02 cells [6]): higher cytotoxicity than azithromycin; fosab mRNA level (qRT-PCR) [2]: significantly elevated; Liver injury in clinical use ([1]; ref Author Anonymous, 2012): pulled from the market due to severe acute liver injury; Liver phenotype of zebrafish larvae ([3]; 0.1 mM): hepatomegaly |
| CC[C@H]1OC(=O)[C@H](C)[C@@H](O[C@H]2C[C@@](C)(OC)[C@@H](O)[C@H](C)O2)[C@H](C)[C@@H](O[C@@H]2O[C@H](C)C[C@H](N(C)C)[C@H]2O)[C@](C)(OC)C[C@@H](C)C(=O)[C@H](C)[C@@H](O)[C@]1(C)O [Clarithromycin] | – | – | – | – | Hepatotoxicity compared with erythromycin [1]: less hepatotoxicity than erythromycin |
